The results in this text go back to patent US6838580B2, “Opioid derivative” (Teikoku Seiyaku Co., Ltd., priority 2002, dated 2005).

In assay [1] the target is T1, δ-opioid receptor (Rattus norvegicus, UniProt P33533).
T1 construct: synaptic membrane fraction obtained from the rat brain tissue; from tissue; host or cells: Sprague-Dawley rat brain without cerebellum, synaptic membrane (P2) fraction
Description: Competitive receptor binding assay, synaptic membrane fraction, [3H]DPDPE. The settings on record: rat brain synaptic membrane, read-out: Affinity of receptor (Ki, nM) δ. As to the method: (§1) Regarding the opioid peptide derivatives synthesized in Examples and Reference Examples, the μ- and δ-opioid receptor affinities were obtained by a competitive receptor assay using the synaptic membrane fraction obtained from the rat brain tissue according to the known methods. That is, Sprague-Dawley rats having an average weight of 150-180 g were killed by decapitation, the brain tissue from which cerebellum had been removed was homogenized in 0.32M sucrose and 1 mM HEPES (pH 7.5) containing 50 μg/ml soybean trypsin inhibitor, fractionated and centrifuged to obtain the synaptic membrane fraction (P2 fraction), which was pre-incubated in 50 mM HEPES (pH 7.5) containing 100 mM NaCl, 0.1 mM GDP and soybean trypsin inhibitor to remove endogenous ligands from the P2 fraction.
(§2) A competitive receptor binding assay (Radiolabeled receptor assay: RRA) based on an exchange reaction between a radioactive ligand for the synaptic membrane fraction and a peptide derivative to be tested was performed by using tritium-labeled [^3H]DAGO which is a μ-opioid receptor agonist and tritium-labeled [^3H]DPDPE which has the high δ-opioid receptor selectivity, and incubating an aliquot of the synaptic membrane with the peptide derivative to be tested for a period of time. Upon this, an exchange reaction between a ligand was performed under constant conditions, the radiation remaining in the synaptic membrane fraction was measured, and an amount of the ligand adsorbed onto the synaptic membrane fraction is calculated. By assuming that binding with a receptor occurs in competition between a radioactive ligand and an end ligand, the concentration (IC50) at which the maximum specific binding of the radioactive ligand is 50% inhibited was obtained, from which the affinity constant (Ki) was calculated by a method of Cheng et al. (Biochem. Pharmcol., 22, 3099(1973)).

The target in assay [2] is T2, μ-opioid receptor (Rattus norvegicus, UniProt P33535).
T2 construct: synaptic membrane fraction obtained from the rat brain tissue; from tissue; host or cells: Sprague-Dawley rat brain without cerebellum, synaptic membrane (P2) fraction
Description: Competitive receptor binding assay, synaptic membrane fraction, [3H]DAGO. The settings on record: for Ki: rat brain synaptic membrane, [3H]DAGO, read-out: Affinity of receptor (Ki, nM) μ; for Selectivity δ/μ: ratio Ki δ / Ki μ. The method, then: as §1, §2

For assay [3], the system named is SD Male rats. Description: Analgesic effect, Randoll-Seritto hind limb pressure method, intracerebroventricular administration. Type of assay: in vivo. The settings on record: rat, i.c.v., 3 μg/animal. The text has this:
(§3) SD Male rats, weighing 110 to 130 g, were used. One group consisted of five rats. The analgesic effects were examined by a Randoll-Seritto method. […] The threshold was expressed in mm Hg. During the measurement, the upper limit of the pressure applied to a hind limb was 100 mm Hg in order to avoid damage of the tissues.
1) When performing intracerebroventricular administration (i.c.v.), a rat was fixed to a brain stereotactic fixing apparatus under slight ether anesthesia, the skin at a head was dissected, and an administration cannula was inserted into a place at a transverse of […] from a bregma position and a depth of 3.5 to 4.0 mm. The administration volume was 10 μl/animal. Observation of the analgesic action was performed before administration, and at 30 minutes, and 1, 2, 3, 4 and 5 hours after administration. Doses of both compounds were 0.1, 1 and 10 μg/animal. Separately, a group to which 5 mg/kg of naltrexone hydrochloride was administered subcutaneously immediately after compound of Ex.1 10 μg/animal i.c.v and a group to which 5 mg/kg of naltrexone hydrochloride was administered subcutaneously immediately after compound of Ex.4 10 μg/animal i.c.v. was made. In addition, as morphine hydrochloride at a dose of 3 μg/animal i.c.v. group was used as a positive control group and a physiological saline 10 μl/animal i.c.v. group as a control group was made, respectively.
(§4) In order to perform a significant difference test between respective administration groups and control groups, and between values at respective times before administration and after administration, a Dunnet multiple comparative test method was used. In the statistical processing for performing a significant difference test between morphine hydrochloride administration groups and control groups, Student t-test was used. For performing a significant difference test between values at respective times before administration and after administration in morphine hydrochloride administration groups, a Dunnet multiple comparative test method was used. A significant level was at 5 or lower % risk rate (two-tailed test).

Assay [4] has as its system SD Male rats. Description: Analgesic effect, Randoll-Seritto hind limb pressure method, subcutaneous administration. Type of assay: in vivo. The settings on record: rat, s.c., 5 mg/kg. As to the method:
as §3
(§5) 2) When administered intravenously (i.v.), a volume of 2 ml/kg weight was administered to a tail vein and, when administered subcutaneously (s.c.), a volume of 2 ml/kg weight was subcutaneously administered to the back. In the case of intravenous administration, a 1 mg/kg, 3 mg/kg or 10 mg/kg compound of Ex.1 administration group, a 1 mg/kg, 3 mg/kg or 10 mg/kg compound of Ex.4 administration group, a 2 ml/kg physiological saline administration group and a 5 mg/kg morphine hydrochloride administration group were made, respectively. In the case of subcutaneous administration, a 10 mg/kg, 30 mg/kg or 100 mg/kg compound of Ex.1 administration group, a 10 mg/kg, 30 mg/kg or 100 mg/kg compound of Ex.4 administration group, a 2 ml/kg physiological saline administration group and a 5 mg/kg morphine hydrochloride administration group were made, respectively. Observation of the analgesic action was performed 15 minutes, 30 minutes, 1 hour and 2 hours after administration in the case of intravenous administration, 30 minutes, 1 hour, 2 hours and 3 hours after administration in the case of subcutaneous administration, respectively.
as §4

Assay [5] deals with SD Male rats. Description: Analgesic effect, Randoll-Seritto hind limb pressure method, intravenous administration. Type of assay: in vivo. The settings on record: rat, i.v., 5 mg/kg. The method, then:
as §3, §5, §4

The target of assay [6] is T3, δ-opioid receptor (Mus musculus, UniProt P32300).
T3 construct: using mouse seminiferous tract in place of guinea pig ileum; from tissue; host or cells: mouse seminiferous tract (vas deferens, MVD), organ bath
Description: Mouse seminiferous tract (MVD) assay, inhibition of electrically stimulated constriction. Type of assay: cell-based. The settings on record: agonist activity, read-out: MVD (IC50 ± S.E.).

T3 sequence (P32300 whole entry): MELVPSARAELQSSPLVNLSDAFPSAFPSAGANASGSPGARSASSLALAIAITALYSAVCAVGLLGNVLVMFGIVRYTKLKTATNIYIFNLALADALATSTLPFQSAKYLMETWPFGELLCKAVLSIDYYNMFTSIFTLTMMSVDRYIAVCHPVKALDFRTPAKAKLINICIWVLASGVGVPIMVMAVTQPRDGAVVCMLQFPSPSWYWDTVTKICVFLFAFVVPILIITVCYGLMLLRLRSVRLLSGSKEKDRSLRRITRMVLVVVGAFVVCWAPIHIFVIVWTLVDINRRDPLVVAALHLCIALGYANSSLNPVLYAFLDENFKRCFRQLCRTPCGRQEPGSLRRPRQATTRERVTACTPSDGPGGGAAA
T1 sequence (P33533 whole entry): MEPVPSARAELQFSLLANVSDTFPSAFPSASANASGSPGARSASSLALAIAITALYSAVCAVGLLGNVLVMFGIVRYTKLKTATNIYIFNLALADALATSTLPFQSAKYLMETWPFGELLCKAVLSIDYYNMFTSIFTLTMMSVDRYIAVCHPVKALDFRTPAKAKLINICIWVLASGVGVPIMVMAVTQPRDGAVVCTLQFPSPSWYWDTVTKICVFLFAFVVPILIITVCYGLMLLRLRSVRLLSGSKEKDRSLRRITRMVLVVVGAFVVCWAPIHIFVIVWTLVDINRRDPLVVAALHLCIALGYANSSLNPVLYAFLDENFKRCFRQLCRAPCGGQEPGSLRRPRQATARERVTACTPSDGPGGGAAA
T2 sequence (P33535 whole entry): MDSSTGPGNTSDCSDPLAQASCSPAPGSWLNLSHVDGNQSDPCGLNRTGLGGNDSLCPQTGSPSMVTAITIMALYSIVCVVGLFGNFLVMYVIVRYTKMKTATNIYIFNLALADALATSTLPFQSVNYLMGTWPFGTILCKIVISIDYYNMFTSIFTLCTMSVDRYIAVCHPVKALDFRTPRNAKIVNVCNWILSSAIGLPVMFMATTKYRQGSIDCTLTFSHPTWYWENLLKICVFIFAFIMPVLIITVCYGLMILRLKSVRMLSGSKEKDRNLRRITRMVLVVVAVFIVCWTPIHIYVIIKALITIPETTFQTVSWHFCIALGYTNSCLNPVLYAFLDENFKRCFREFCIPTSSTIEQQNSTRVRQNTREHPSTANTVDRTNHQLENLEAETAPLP

Broadly, the Ki is a measure of affinity in units of concentration, obtained from inhibition or displacement. For the compound `N[C@@H](Cc1ccc(O)cc1)C(=O)NCCNC(=O)[C@@H](N)Cc1ccc(O)cc1` [Ref.ex.4, 1,2-Bis(Tyr-amino)ethane.2TFA, reference compound], in assay [1], the Ki is 8290 nM. In assay [2], the Ki is 648 ± 95 nM and the “Selectivity δ/μ” value worked out at 13.
On to `N[C@@H](Cc1ccccc1)C(=O)NCCCCNC(=O)[C@@H](N)Cc1ccccc1` [Ref.ex.1, 1,4-Bis(Phe-amino)butane.2HCl, reference compound], for which the values for the Ki in assay [1] and in assay [2] were 46200 nM and 1530 nM, respectively. In addition, the “Selectivity δ/μ” value in assay [2] amounted to 30.
As to `CN1CC[C@]23c4c5ccc(O)c4O[C@H]2[C@@H](O)C=C[C@H]3[C@H]1C5.Cl` [Morphine, morphine hydrochloride, reference compound], the “Change in escape reaction threshold / analgesic effect, in words” value was “significant increase in the threshold was recognized 30 minutes, 1 hour and 3 hours after administration” in assay [3]; “significant increase was recognized 30 minutes, 1 hour and 2 hours after administration” in assay [4]; “significant increase in the escape reaction threshold was recognized 15 minutes, 30 minutes and 1 hour after administration” in assay [5]. For the same compound, the “Threshold (mmHg)” value in assay [3] (0.5 hr) was 59 ± 4 mmHg; in assay [3] (1 hr), 59 ± 3 mmHg; in assay [3] (2 hr) it was 52 ± 3 mmHg; in assay [3] (3 hr) it was 52 ± 3 mmHg; in assay [3] (4 hr), 49 ± 2 mmHg; in assay [3] (5 hr), 51 ± 2 mmHg. Also, the “Threshold (mmHg)” value in assay [3] (before administration) is 46 ± 1 mmHg; in assay [4] (0.5 hr) it was 87 ± 2^##,$$ mmHg; in assay [4] (1 hr) it was 85 ± 6^##,$$ mmHg; in assay [4] (2 hr), 71 ± 7^#,$ mmHg; in assay [4] (3 hr) it was 61 ± 7 mmHg; in assay [4] (before administration), 48 ± 2 mmHg. For the same compound, the “Threshold (mmHg)” value is listed as 83 ± 6^##,$$ mmHg in assay [5] (0.25 hr); 79 ± 7^##,$$ mmHg in assay [5] (0.5 hr); 78 ± 6^##,$$ mmHg in assay [5] (1 hr); 65 ± 7 mmHg in assay [5] (2 hr); 49 ± 2 mmHg in assay [5] (before administration).
As for `N[C@@H](Cc1ccc(O)cc1)C(=O)NCCCCNC(=O)[C@@H](N)Cc1ccc(O)cc1` [Ref.ex.2, 1,4-Bis(Tyr-amino)butane.2HCl, reference compound], the Ki in assay [1] is 6500 nM. Besides, in assay [2], the Ki was 309 ± 104 nM and the “Selectivity δ/μ” value came to 21.
As usually defined, the IC50 is the concentration that gives 50% inhibition. Regarding `Cc1cc(O)cc(C)c1C[C@H](N)C(=O)NCCCCNC(=O)[C@@H](N)Cc1ccc(O)cc1` [Ex.3, 1-(Dmt-amino)-4-Tyr-aminobutane.2HCl], the Ki in assay [1] amounted to 133 ± 18 nM. In addition, in assay [2], the Ki was 0.38 ± 0.02 nM and the “Selectivity δ/μ” value is reported as 349. In addition, in assay [6], the IC50 is over 10 µM.
As to `N[C@@H](Cc1ccc(O)cc1)C(=O)NCCCCCCCCNC(=O)[C@@H](N)Cc1ccc(O)cc1` [Ref.ex.5, 1,8-Bis(Tyr-amino)octane.2TFA, reference compound], the results for the Ki in assay [1] and in assay [2] were 6150 nM and 399 ± 40.5 nM, respectively.
For `Cc1cc(O)cc(C)c1C[C@H](N)C(=O)NCCNC(=O)[C@@H](N)Cc1c(C)cc(O)cc1C` [Ex.5, 1,2-Bis(Dmt-amino)ethane.2TFA], the Ki in assay [1] was 116 ± 10.6 nM. Moreover, in assay [2], the Ki is 1.43 ± 0.01 nM and the “Selectivity δ/μ” value is given as 81. Moreover, the IC50 in assay [6] was over 10 µM.
On the same counts, the results for `Cc1cc(O)cc(C)c1C[C@H](N)C(=O)NCCCCCCCCNC(=O)[C@@H](N)Cc1c(C)cc(O)cc1C` [Ex.6, 1,8-Bis(Dmt-amino)octane.2TFA] are 14.8 ± 3 nM, 0.19 ± 0.024 nM, 78 and over 10 µM.
Consider `N[C@@H](Cc1ccc(O)cc1)C(=O)NCCCCCCNC(=O)[C@@H](N)Cc1ccc(O)cc1.O=C(O)C(F)(F)F.O=C(O)C(F)(F)F` [Ref.ex.3, 1,6-Bis(Tyr-amino)hexane.2TFA, reference compound], for which the Ki in assay [1] was 21900 nM. In addition, in assay [2], the Ki is 410 ± 85 nM and the “Selectivity δ/μ” value turned out to be 53.
As to `Cc1cc(O)cc(C)c1C[C@H](N)C(=O)NCCCCNC(=O)[C@@H](N)Cc1ccccc1` [Ex.2, 1-Dmt-amino-4-Phe-aminobutane.2HCl], the Ki in assay [1] stood at 61 ± 5.7 nM; in assay [2], 0.52 ± 0.089 nM. Besides, the “Selectivity δ/μ” value in assay [2] came to 117. Also, the IC50 in assay [6] was over 10 µM.
